In ChEMBL document CHEMBL6103592, “Discovery of novel thiazole-pleuromutilin derivatives with potent antibacterial activity” (Eur J Med Chem, 2025):
Values after ≈ are worked out from the molar mass of the structure shown. Active and inactive are the calls of the source. The calls are words filed in the database; no cut-off is given here.

Columns and labels:
[1] = Cytotoxicity against human HEK293T cells assessed as cell viability incubated for 24 hrs by CCK-8 assay; format: toxicity, cell-based, HEK-293T
[2] = Acute toxicity in rat assessed as pathological changes in spleen at 2000 mg/kg, po measured for 14 days; format: organism-based; conditions: in vivo, 336 h, time 14 day
[3] = Acute toxicity in rat assessed as absolute spleen weight at 2000 mg/kg, po measured for 7 days (reference value: 0.53 +/- 0.04g); format: organism-based; conditions: in vivo, 168 h, time 7 day
Staphylococcus aureus [4] = experiment: Bactericidal activity against methicillin-resistant Staphylococcus aureus ATCC 43300 at 1 times MIC incubated upto 24 hrs by time-kill assay; format: functional, organism-based
[5] = Acute toxicity in rat assessed as decrease in locomotor activity at 2000 mg/kg, po measured for 14 days; format: organism-based; conditions: in vivo, 336 h, time 14 day
[6] = Acute toxicity in rat assessed as necrosis of epithelial cells at 2000 mg/kg, po measured for 14 days by H and E staining based analysis; format: organism-based; conditions: in vivo, 336 h, time 14 day
[7] = Acute toxicity in rat assessed as relative heart weight at 2000 mg/kg, po administered for 7 days followed by readministration after 7 days and measured at 14 days (reference value: 0.40 +/- 0.06 %); format: organism-based; conditions: in vivo, 336 h, time 14 day
[8] = Acute toxicity in rat assessed as degeneration of glandular epithelial cells at 2000 mg/kg, po measured for 14 days by H and E staining based analysis; format: organism-based; conditions: in vivo, 336 h, time 14 day
Enterococcus faecalis = experiment: Antibacterial activity against Enterococcus faecalis assessed as inhibition of visible bacterial growth incubated for 24 hrs by CLSI based broth microdilution method; format: functional
[9] = Acute toxicity in rat assessed as pathological changes in liver at 2000 mg/kg, po measured for 14 days; format: organism-based; conditions: in vivo, 336 h, time 14 day
[10] = Acute toxicity in rat assessed as absolute uterus weight at 2000 mg/kg, po measured for 7 days (reference value: 0.52 +/- 0.18 g); format: organism-based; conditions: in vivo, 168 h, time 7 day
[11] = Acute toxicity in rat assessed as absolute kidney weight at 2000 mg/kg, po measured for 7 days (reference value: 1.60 +/- 0.16 g); format: organism-based; conditions: in vivo, 168 h, time 7 day
Staphylococcus aureus [12] = experiment: Antibacterial activity against methicillin-resistant Staphylococcus aureus ATCC 43300 assessed as reduction in bacterial proteins level at 0.5 to 2 microg/ml measured for 4 hrs; format: functional, organism-based; conditions: dose 0.5-2 µg/ml
Staphylococcus aureus [13] = experiment: Antibacterial activity against methicillin-resistant Staphylococcus aureus ATCC 43300 assessed as post antibiotic effect at 8 times MIC measured after 1 hr; format: functional
[14] = Acute toxicity in rat assessed as relative uterus weight at 2000 mg/kg, po measured for 7 days (reference value: 0.27 +/- 0.09%); format: organism-based; conditions: in vivo, 168 h, time 7 day
Staphylococcus aureus [15] = experiment: Drug resistance, ratio of MIC for methicillin-resistant Staphylococcus aureus ATCC 43300 after 21 passages to MIC for methicillin-resistant Staphylococcus aureus ATCC 43300 during first exposure; format: functional
Escherichia coli = experiment: Antibacterial activity against Escherichia coli ATCC 25922 assessed as inhibition of visible bacterial growth incubated for 24 hrs by CLSI based broth microdilution method; format: functional
Staphylococcus aureus [16] = experiment: Antibacterial activity against methicillin-resistant Staphylococcus aureus ATCC 43300 assessed as post antibiotic effect at 1 times MIC measured after 1 hr; format: functional
[17] = Acute toxicity in rat assessed as absolute kidney weight at 2000 mg/kg, po administered for 7 days followed by readministration after 7 days and measured at 14 days (reference value: 1.60 +/- 0.16 g); format: organism-based; conditions: in vivo, 336 h, time 14 day
[18] = Acute toxicity in rat assessed as pathological changes in kidney at 2000 mg/kg, po measured for 14 days; format: organism-based; conditions: in vivo, 336 h, time 14 day
Staphylococcus aureus [19] = experiment: Antibacterial activity against methicillin resistant Staphylococcus aureus; format: functional
Staphylococcus aureus [20] = experiment: Antibacterial activity against methicillin-resistant Staphylococcus aureus ATCC 43300 assessed as inhibition of visible bacterial growth incubated for 24 hrs by CLSI based broth microdilution method; format: functional
Streptococcus agalactiae = experiment: Antibacterial activity against Streptococcus agalactiae assessed as inhibition of visible bacterial growth incubated for 24 hrs by CLSI based broth microdilution method; format: functional
[21] = Acute toxicity in rat assessed as relative liver weight at 2000 mg/kg, po administered for 7 days followed by readministration after 7 days and measured at 14 days (reference value: 4.36 +/- 0.23 %); format: organism-based; conditions: in vivo, 336 h, time 14 day
[22] = Acute toxicity in rat assessed as pathological changes in lung at 2000 mg/kg, po measured for 14 days; format: organism-based; conditions: in vivo, 336 h, time 14 day
[23] = Acute toxicity in rat assessed as necrosis of glandular epithelial cells at 2000 mg/kg, po measured for 14 days by H and E staining based analysis; format: organism-based; conditions: in vivo, 336 h, time 14 day
[24] = Acute toxicity in rat assessed as relative lung weight at 2000 mg/kg, po measured for 7 days (reference value: 0.58 +/- 0.03%); format: organism-based; conditions: in vivo, 168 h, time 7 day
[25] = Acute toxicity in rat assessed as relative kidney weight at 2000 mg/kg, po measured for 7 days (reference value: 0.83 +/- 0.08%); format: organism-based; conditions: in vivo, 168 h, time 7 day
[26] = Acute toxicity in rat assessed as absolute heart weight at 2000 mg/kg, po measured for 7 days (reference value: 0.77 +/- 0.12 g); format: organism-based; conditions: in vivo, 168 h, time 7 day
[27] = Acute toxicity in rat assessed as relative lung weight at 2000 mg/kg, po administered for 7 days followed by readministration after 7 days and measured at 14 days (reference value: 0.58 +/- 0.03 %); format: organism-based; conditions: in vivo, 336 h, time 14 day

## C=C[C@]1(C)C[C@@H](OC(=O)CSc2nc(OC(=O)c3ccc(C(C)(C)C)cc3)cs2)[C@]2(C)[C@H](C)CC[C@]3(CCC(=O)[C@H]32)[C@@H](C)[C@@H]1O
[1]
  IC50 at 24 h: > 200 µM
[2]
  Activity: Non-toxic
[3]
  Activity: 0.53 g
Staphylococcus aureus [4]
  Activity: Active
[5]
  Activity: Non-toxic
[6]
  Activity: Non-toxic
[7]
  Activity: 0.36%
[8]
  Activity: Non-toxic
Enterococcus faecalis
  MIC: > 32 µg/mL
[9]
  Activity: Non-toxic
[10]
  Activity: 0.52 g
[11]
  Activity: 1.54 g
Staphylococcus aureus [12]
  Activity: Active
Staphylococcus aureus [13]
  PAE: 2.27 h
[14]
  Activity: 0.27%
Staphylococcus aureus [15]
  Ratio: 16
Escherichia coli
  MIC: > 32 µg/mL
Staphylococcus aureus [16]
  PAE: 0.801 h
[17]
  Activity: 1.63 g
[18]
  Activity: Non-toxic
Staphylococcus aureus [19]
  MIC: 0.5 µg/mL (≈ 0.765 µM)
Staphylococcus aureus [20]
  MIC: 0.25 µg/mL (≈ 0.382 µM)
Streptococcus agalactiae
  MIC: 0.063 µg/mL (≈ 0.0963 µM)
[21]
  Activity: 3.97%
[22]
  Activity: Non-toxic
[23]
  Activity: Non-toxic
[24]
  Activity: 0.58%
[25]
  Activity: 0.8%
[26]
  Activity: 0.75 g
[27]
  Activity: 0.59%
